Data: article doi:10.1101/2025.11.05.686689v1 (biorxiv, 2025)

Target: CAPON (NOS1AP), recombinant, C-terminal His tag (Homo sapiens, UniProt O75052)
Test: microscale thermophoresis
Format: binding

Chain of CAPON (NOS1AP), recombinant, C-terminal His tag (O75052 whole entry): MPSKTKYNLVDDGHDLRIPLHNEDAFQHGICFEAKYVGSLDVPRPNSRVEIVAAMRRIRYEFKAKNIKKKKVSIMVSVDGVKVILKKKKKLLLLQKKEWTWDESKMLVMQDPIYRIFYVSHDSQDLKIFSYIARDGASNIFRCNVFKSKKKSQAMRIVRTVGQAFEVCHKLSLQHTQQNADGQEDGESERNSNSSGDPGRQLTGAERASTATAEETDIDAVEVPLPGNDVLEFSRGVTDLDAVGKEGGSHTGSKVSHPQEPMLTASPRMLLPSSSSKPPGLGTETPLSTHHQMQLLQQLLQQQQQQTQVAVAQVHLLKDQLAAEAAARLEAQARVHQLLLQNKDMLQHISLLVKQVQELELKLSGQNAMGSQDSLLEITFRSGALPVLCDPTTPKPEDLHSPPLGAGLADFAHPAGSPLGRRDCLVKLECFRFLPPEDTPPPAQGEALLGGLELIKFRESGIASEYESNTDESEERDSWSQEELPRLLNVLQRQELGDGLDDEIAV

Kd: 74 ± 15 µM
Structure (SMILES): COc1ccc(NC(=O)c2ccco2)cc1NC(=O)c1cc2ccccc2cc1OC [MA32]
